Experimental data: publication PMC9298194, “Clinical Pharmacokinetics of Daprodustat: Results of an Absorption, Distribution, and Excretion Study With Intravenous Microtracer and Concomitant Oral Doses for Bioavailability Determination” (Clinical Pharmacology in Drug Development, 2021)
“And” between values parts separate entries of the source, which are not always exact repeats. Equal entries are not always repeated.

Legend:
[1] = Metabolite load, hepatic extraction, fraction escaping gut metabolism and fraction absorbed analyses; assay type: in vivo, human
Protocol: To assess the extent of metabolism and absorption of daprodustat, the plasma PK parameters: metabolite load, fraction escaping metabolism by the gut wall (Fg), hepatic extraction (Eh), and fraction absorbed (Fabs) were calculated on the basis of equations found in Harrell et al.[18] All parameters for analysis have been conducted on plasma results (assuming a blood to plasma ratio of 1) but when appropriate, the actual human blood:plasma ratio of 1.23 (internal GSK reports) of daprodustat has been applied to specific parameters to aid interpretation. (1) HepaticExtraction:Eh(blood)=CLbtotal−CLbrenal/QH (2) Fractionescapinglivermetabolism:Fh=1−Eh(blood) (3) MetaboliteLoadTRA=totalradioactivity:MLroute=AUCTRAroute−AUCroute/AUCTRAroute (4) Fractionescapinggut:Fg=1−MLoral−MLIV/Fh (5) Fractionabsorbed:Fabs=Foral/Fh×Fg

[2] = Urine and fecal excretion of total radioactivity (mass balance); assay type: in vivo, human; settings: 25 mg [14C] oral solution; for total radioactivity recovered (urinary + fecal): 96‐ to 120‐hour collection (day 5) onward
Protocol: On day 1 of treatment period 2, after an overnight fast of at least 8 hours, each participant received 25 mg [^14C]‐GSK1278863 (≈2.31 MBq; 62.5 μCi) as an oral solution; participants continued to fast for 4 hours after dosing.[15] Blood, urine, and fecal samples were collected for a minimum of 144 hours (up to day 7) after dosing, depending on the amount of radioactivity excreted by each participant in excreta collected daily. Liquid scintillation counting (LSC) was performed on these excreta collections on an ongoing basis to assess recovery of the radioactivity dosed. Participants were discharged if ≥90% and <1% of the dose was excreted on both days 6 and 7.
Urine samples for measurement of total radioactivity excreted in urine were collected before dosing in period 1, then over the time periods 0 to 24, 24 to 48, 48 to 72, 72 to 96, 96 to 120, and 120 to 144 hours in period 2. An aliquot of each 24‐hour urine collection was shipped at ambient temperature to Covance (Harrogate, North Yorkshire, UK) for total radioactivity measurement by LSC. […] Total fecal samples were frozen at −70°C, then shipped on cold gel packs to Covance for total radioactivity measurement by LSC (following homogenization). Aliquots of both urine and fecal homogenates were also sent to GlaxoSmithKline (GSK) for characterization and quantification of metabolites (data not reported). • The following parameters were determined from the urine and fecal radiolabeled drug‐related material (total radioactivity) data: • Absolute amount excreted and percentage excreted in urine (Ae [urine] and Fe% [urine]) within each collection period and cumulative urinary recovery and fraction excreted over the total collection period • Absolute amount excreted and percentage excreted in feces (Ae [fecal] and Fe% [fecal]) with each collection period and cumulative fecal recovery and fraction excreted over the total collection period and cumulatively over the collection period
Total excretion (sum of urine and fecal excretion), Ae [total], and Fe% [total] were calculated by collection interval for each participant. […]

[3] = coadministered with gemfibrozil; cited from earlier work
[4] = 39‐week study in monkeys; cited from earlier work
[5] = healthy volunteers; cited from earlier work

## O=C(O)CNC(=O)C1C(=O)N(C2CCCCC2)C(=O)N(C2CCCCC2)C1=O [Daprodustat]
[1]; [14C] IV infusion, fraction, adjusted with blood:plasma ratio of 1.23, mean (SD), n = 3
  Eh (hepatic extraction): 0.181 (0.050)
[1]; [14C] IV infusion, mean (SD), n = 3
  MLIV (plasma metabolite load): 0.623 (0.080)
[1]; [14C] IV infusion, mean (SD), n = 3, listed as daprodustat
  MLIV (plasma metabolite load): ≈ 0.623 (0.080)
[1]; [14C] oral solution, fraction, reduced to Foral/Fh, blood:plasma ratio 1.23, mean (SD), n = 3
  Fabs (fraction absorbed): 0.811 (0.134)
[1]; [14C] oral solution, mean (SD), n = 3
  Fg (fraction escaping metabolism by the gut wall): > 1
[1]; [14C] oral solution, mean (SD), n = 6
  MLPO (plasma metabolite load): ~0.584 (0.060)
[1]; following oral solution administration
  daprodustat absorbed across the gastrointestinal tract (Fabs): ≈ 80% and 81% and ≈ 81%
[1]; from blood CL, human liver blood flow of 87 L/h
  hepatic extraction: ≈ 18% and 18%
[2]
  unchanged daprodustat excreted in urine: ≈ 0.5 % of the administered radioactivity
  total radioactivity recovered (urinary + fecal): ≈ 95 % of the administered radioact
[2]; listed as [^14C]‐GSK1278863
  total radioactivity recovered (urinary + fecal): ≈ 95 % of the administered radioactivity
[3]
  increase in the plasma exposure of daprodustat: 18.6 fold
[4]
  doses at which gastric erosions were observed: ≥ 10 mg/kg/day
  no observed adverse effect level: 3 mg/kg/day
[5]
  renal clearance: ≈ 0.20 mL/min
